Experimental findings from PubChem BioAssay AID489023 (Sanford-Burnham Center for Chemical Genomics, 2010) are described below.

The structures appear in SMILES notation. Calls of active or inactive are those of the source. The rule behind the calls is not given here.

This assay deals with 697B cells, BCR-induced NF-kB luciferase reporter luminescence. The experiment in a line: inhibitors of BCR-induced NF-kB activation, dose response, 697B cells, luciferase luminescence (AID 489023).
As to `CC(=O)c1cccc(S(=O)(=O)Nc2cc(C(F)(F)F)ccc2N2CCOCC2)c1`, the IC50 – broadly, the concentration that gives 50% inhibition – was > 80 µM (inactive).
To `CC(C)CCNC(=O)CCCOc1cc(=O)n(C)c2ccccc12` belongs 64.3 µM (inactive); to `O=C(NNC(=O)c1ccccc1O)c1ccc(Cl)c(S(=O)(=O)N2CCc3ccccc32)c1`, > 80 µM (inactive); to `CC1=CC(C)(C)Nc2ccc(OC(=O)C(Cc3ccccc3)N3C(=O)c4ccccc4C3=O)cc21` (stereo not drawn), > 80 µM (inactive).
To `Cc1ccc(-c2nsc3c(N4CCC(C(N)=O)CC4)ncnc23)cc1` belongs 6.33 µM; to `CCNC(=O)CCc1nc(-c2ccc(C(C)(C)C)cc2)no1`, under 0.16 µM; to `O=C(CCCN1C(=O)/C(=C/c2ccccc2Cl)SC1=S)NNC(=O)c1ccc(Cl)cc1Cl`, 3.1 µM.
To `Cc1ccc(/C=C2\SC(=S)N(CCCC(=O)Nc3cc(C)on3)C2=O)cc1` belongs 34.3 µM (inactive); to `Cc1ccc(C(=O)CSc2nnc(COc3cccc(C)c3)o2)cc1`, > 80 µM (inactive).
With `Cc1ccccc1-n1c(SCc2c(C)noc2C)nnc1-c1c[nH]c2ccccc12`, the IC50 was 76.1 µM (inactive).
The result for `COc1cc(-c2nc(C(=O)NCC3CCCO3)cc3c2[nH]c2ccccc23)cc(OC)c1OC` (stereo not drawn) reads 12.2 µM.
The result for `C=CCn1c(O)c(C(C)=NC(C)c2ccccc2)c(=O)[nH]c1=O` (stereo not drawn) reads > 80 µM (inactive).
The result for `COc1ccccc1/C=C1/SC(=S)N(CCC(=O)Nc2cccnc2)C1=O` reads 9.65 µM.
In the case of `COc1ccc(OCc2cccc(C(=O)NN)c2)cc1`, the IC50 is 2.43 µM.
To `CSC1CCCCC1(O)CSc1nc2c(cc1C#N)CCCC2` (stereo not drawn) belongs > 80 µM (inactive); to `Cc1ccc(CSc2nnc(SCC(=O)N/N=C/C=C/c3ccccc3[N+](=O)[O-])s2)cc1`, > 80 µM (inactive); to `CCOc1ccc(-c2cc(CCCC(=O)NCCCOC)no2)cc1`, > 80 µM (inactive).
Take `CCOc1cc2nc(-c3ccc(OC)c(OC)c3)nc(N3CCOCC3)c2cc1OC`: the IC50 was 4.94 µM.
To `COc1cccc(/C=C2/SC(=S)N(CCCC(=O)Nc3ccc(O)cc3)C2=O)c1` belongs 1.49 µM; to `Cc1c(CCC(=O)O)c(=O)oc2cc3oc4c(c3cc12)CCCC4`, 0.27 µM; to `Cc1ccc(/C=C2\SC(=S)N(CCCC(=O)Nc3ccccn3)C2=O)cc1`, 0.37 µM.
To `C=CCOc1ccccc1CN(C(=O)CCl)c1ccc2c(c1)OCO2` belongs 0.72 µM; to `CCCS(=O)(=O)Nc1cccc(-c2ccc3nnc(C)n3n2)c1`, > 80 µM (inactive).
On to `CCCNC(=O)c1ccc(N2CCC3(CC2)CC(c2cccc(Br)c2)=NO3)c(NC(=O)c2ccc(Cl)c([N+](=O)[O-])c2)c1`, for which the IC50 was > 80 µM (inactive).
For `C[C@H]1CCC/C=C/[C@@H]2C[C@H](O)C[C@H]2[C@H](O)/C=C/C(=O)O1`, the IC50 is > 80 µM (inactive).
Regarding `Nc1ccccc1SCC(=O)Nc1nc(-c2ccccc2)cs1`, the IC50 is > 80 µM (inactive).
To `CCC(C)(C)c1ccc(OCCCC[n+]2ccccc2)c(C(C)(C)CC)c1` belongs 18.2 µM.
The result for `O=C(Nc1cccc(S(=O)(=O)Nc2ccc(Cl)cc2)c1)c1ccc(Cl)nc1` reads 41.6 µM (inactive); that for `CCN(CC(=O)Nc1c(F)cccc1F)C(=O)c1cc(S(=O)(=O)N2CCOCC2)ccc1N1CCCC1`, 12.7 µM; that for `COc1ccc(Cc2nc(-c3ccc(NC(=O)c4cccnc4)cc3)no2)cc1`, > 80 µM (inactive).
As to `CCSc1ncc(Cl)c(C(=O)Nc2sc3c(c2C(=O)NCc2cccnc2)CCCC3)n1`, the IC50 was > 80 µM (inactive).
On to `CCOc1ccc(-c2nc(CSCC(=O)NC3CC3)c(C)o2)cc1`, for which the IC50 was 0.28 µM.
The result for `Cc1nc2cc(-c3ccc(Cl)cc3)nn2c(C)c1CCC(=O)NCc1ccco1` reads > 80 µM (inactive); that for `COCCCn1c(=O)/c(=C\c2cccc(OC)c2OC)s/c1=C(/C#N)C(=O)Nc1ccc(C(=O)O)cc1`, > 80 µM (inactive).
To `Cc1nc2cc(-c3ccccc3)nn2c(C)c1CCC(=O)NCc1ccco1` belongs > 80 µM (inactive); to `CC(C)CN(C(=O)COC(=O)C12CC3CC(CC(C3)C1)C2)c1c(N)n(Cc2ccccc2)c(=O)[nH]c1=O`, 5.71 µM.
To `N=c1c2c(n(Cc3ccc(Cl)cc3Cl)c3c1CCC3)CCCC2` belongs 40.3 µM (inactive); to `CCn1c(=O)cc(SCC(=O)N2CCN(C)CC2)c2ccccc21`, > 80 µM (inactive).
For the molecule `COC(=O)c1c(NC(=O)c2cccc([N+](=O)[O-])c2)sc(C(N)=O)c1C`, the IC50 is 45.6 µM (inactive).
`COc1cc(OC)cc(-c2cc3nc(C)c(CCC(=O)Nc4nc(C)cs4)c(C)n3n2)c1`: the concentration for half-maximal inhibition (IC50) was 13.2 µM.
To `CC(C)Cn1c([N+](=O)[O-])nc2c1c(=O)[nH]c(=O)n2C` belongs 5.67 µM; to `CCOC(=O)/C=C(\C)Sc1cc(=O)oc2ccccc12`, 1.61 µM.
For `CCC(CC)C(=O)Nc1ccc(Sc2ccc([N+](=O)[O-])cc2)cc1`, the IC50 is 32.2 µM (inactive).
To `COc1cc(NC(=O)c2cc3c(C)nc4ccccc4c3o2)cc(OC)c1OC` belongs 14.1 µM.
On to `Cc1ccc(C(=O)CSc2nnc(COc3ccccc3)o2)cc1`, for which the IC50 is > 80 µM (inactive).
`O=C(CCCN1C(=O)S/C(=C/C=C/c2ccccc2)C1=O)Nc1ccc(C(=O)O)cc1`: the IC50 is > 80 µM (inactive).
The result for `Cc1nn(C)c(C)c1CN(C)S(=O)(=O)c1ccc2ccccc2c1` reads > 80 µM (inactive).
As for `N=c1c2c(n(Cc3ccc(Cl)c(Cl)c3)c3c1CCC3)CCCC2`, the IC50 was 31.1 µM (inactive).
The result for `Cc1ccc(-c2nn3c(C)nnc3c3ccccc23)cc1S(=O)(=O)N1CCN(CCO)CC1` reads 26.5 µM (inactive); that for `COc1ccc(-n2ncc3c(N4CCC(C(N)=O)CC4)ncnc32)cc1`, > 80 µM (inactive).
To `COc1ccc(C(C(=O)NC2CCCCC2)N(C(=O)CCl)c2ccc(OC)cc2)cc1` (stereo not drawn) belongs 0.57 µM; to `CC(=O)c1cn(CCOc2cc(C)ccc2C)c2ccccc12`, > 80 µM (inactive); to `O=C(Nc1nc2c(Br)cc(Br)cc2c(=O)s1)c1ccco1`, 1.8 µM.
To `Cn1c(=O)cc(OCC(=O)N2CCC3(CC2)OCCO3)c2ccccc21` belongs 67.5 µM (inactive).
As for `CC(C)c1[nH]nc2c1C(c1ccco1)C(C#N)=C(N)O2` (stereo not drawn), the IC50 is > 80 µM (inactive).
The result for `Cn1c(=O)cc(SCC(=O)N2CCCC2)c2cc(Cl)ccc21` reads > 80 µM (inactive); that for `CCN(CC)CCCN=Cc1c(-c2ccccc2)[nH]n(-c2nc3ccccc3s2)c1=O`, 17.9 µM; that for `CCOC(=O)Cc1ccc(NC(=O)c2ccc(C(C)(C)C)cc2)cc1`, under 0.16 µM.
For `NC(=S)N=Nc1c(O)n(Cc2ccccc2)c2ccccc12`, the IC50 is 16.3 µM.
For `COc1cc(C[C@@H]2C(=O)OC[C@H]2Cc2ccc(OC)c(OC)c2)ccc1O`, the IC50 was > 80 µM (inactive).
To `O=C(CCl)Nc1ccccc1Sc1ccccc1` belongs 15.9 µM; to `Cc1ccc(-c2nn3c(C)nnc3c3ccccc23)cc1S(=O)(=O)NCCN1CCOCC1`, 31.5 µM (inactive).
As to `Cc1cc(C)c(S(=O)(=O)NCc2ccncc2)c(C)c1`, the IC50 was > 80 µM (inactive).
Take `Cc1nc2cc(-c3cccc(F)c3)nn2c(C)c1CCC(=O)N1CCC2(CC1)OCCO2`: the IC50 is 49.5 µM (inactive).
To `COc1cc(Br)c(C(=O)c2nccc3cc(OC)c(OC)cc23)cc1OC` belongs > 80 µM (inactive); to `CC1=CC(C)(C)Nc2ccc(OC(=O)CN3C(=O)CCC3=O)cc21`, 8.56 µM.
For the molecule `Cc1ccc(Nc2nc(N/N=C\c3ccc4c(c3)OCO4)nc(N3CCOCC3)n2)cc1`, the IC50 was 3.11 µM.
To `N#Cc1ccccc1COc1ccc(/C=C/C(=O)O)cc1` belongs 14.9 µM.
The result for `Cc1cc(C)cc(OCc2nnc(SCC(=O)c3ccccc3)o2)c1` reads > 80 µM (inactive); that for `C/C(=N\Nc1nc(Nc2ccccc2)nc(N2CCOCC2)n1)c1cccs1`, 8.71 µM.
The result for `COc1ccc(NS(=O)(=O)c2cc(NC(=O)c3cc(=O)c4ccccc4o3)ccc2OC)cc1` reads > 80 µM (inactive); that for `CCC(=O)N1c2ccccc2C(N(C(C)=O)c2ccccc2)CC1C` (stereo not drawn), 61 µM (inactive); that for `Oc1[nH]c2ccccc2c1N=Nc1nc(Nc2ccccc2)nc(N2CCOCC2)n1`, 1.36 µM.
Turning to `N=c1ccn(Cc2c(Cl)cccc2Cl)cc1`, the IC50 was > 80 µM (inactive).
With `CCn1c(=O)cc(SCC(=O)N2CCCCC2)c2ccccc21`, the IC50 was > 80 µM (inactive).
With `CCCCn1c2c(c(=N)c3ccccc31)CCC2`, the IC50 is > 80 µM (inactive).
On to `Cc1ccc(C(=O)N2CCCC(c3ccc(Cl)cc3)=N2)cc1`, for which the IC50 is > 80 µM (inactive).
As to `CCOC(=O)C1CCN(c2ncnc3c2cnn3-c2ccc(OC)cc2)CC1`, the IC50 was > 80 µM (inactive).
To `CCn1c(=O)cc(SCC(=O)N2CCN(C(=O)c3ccco3)CC2)c2ccccc21` belongs > 80 µM (inactive); to `O=C(CCCN1C(=O)S/C(=C\c2ccccc2)C1=O)NNC(=O)c1ccccc1O`, 1.64 µM; to `CCN(CC)S(=O)(=O)c1ccc(N2CCOCC2)c(NC(=O)c2[nH]c(C)c(C(C)=O)c2C)c1`, 27.3 µM (inactive).
For the molecule `CC(C)OCCCNC(=O)c1c(N)n(/N=C/c2ccccn2)c2nc3ccccc3nc12`, the IC50 was > 80 µM (inactive).
To `CC(C)(C)c1ccc(-c2nnc(SCC(=O)NC3CC3)o2)cc1` belongs > 80 µM (inactive); to `Cc1ccccc1Nc1nc(Cl)c(C=O)s1`, > 80 µM (inactive); to `Nc1ccc(-c2cc3ccccc3oc2=O)cc1`, 0.39 µM.
To `CCOc1ccc(S(=O)(=O)NCc2ccncc2)cc1NC(=O)c1ccccc1` belongs > 80 µM (inactive); to `CCOC(=O)c1sc(NC(=O)c2cc(-c3ccccc3C)nc3ccccc23)c(C#N)c1C`, 19.3 µM; to `CCN1C(=O)c2cccc3c(S(=O)(=O)Nc4ccccn4)ccc1c23`, 25.2 µM (inactive).
